# Test results from patent EP4603105A1, “PHARMACEUTICAL COMPOSITION CONTAINING CYCLIC COMPOUND HAVING SELECTIVE KRAS INHIBITORY EFFECT AGAINST HRAS AND NRAS” (CHUGAI SEIYAKU KABUSHIKI KAISHA, priority 2022, dated 2024).
# *1 amine or outer side, *2 acyl side, *3 side chain or, on linkers, in order; H or OH if unused. Where a SMILES comes first, the peptide text is derived from it. Bridges are numbered along the chain shown (N, C = ends). [ ]: non-standard residue; d: D form. The star is where a group is joined. hPhe(3,5-F2-4-CF3) = N[C@@H](CCc1cc(F)c(C(F)(F)F)c(F)c1)C(=O)O; hPhe(3-Cl-4-CF3) = N[C@@H](CCc1ccc(C(F)(F)F)c(Cl)c1)C(=O)O; NPrPhe(4-CF3) = CCCN[C@@H](Cc1ccc(C(F)(F)F)cc1)C(=O)O; X26 = CCCN([C@@H](Cc1ccc(F)cc1)C(=O)[*:2])[*:1]; NMeGly(cPent) = CN[C@H](C(=O)O)C1CCCC1; Gly(cBu) = N[C@H](C(=O)O)C1CCC1; NMeD = CN[C@@H](CC(=O)O)C(=O)O; NMeL = CN[C@@H](CC(C)C)C(=O)O; αMeS = C[C@](N)(CO)C(=O)O; Morpholide = C1CN(*)CCO1; NMeA = CN[C@@H](C)C(=O)O; Ac5c = NC1(C(=O)O)CCCC1; Aze = O=C(O)[C@@H]1CCN1; Sar = CNCC(=O)O
# Tests used:
# [1] = test system: human lung cancer strain NCI-H441; assay type: cell-based
# Summary of the method: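 Step one: dispense the test compound in serial DMSO dilutions. Step three: add the reagent and measure […].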
# [2] = biological target: GDP-bound NRAS wild-type protein (Homo sapiens, UniProt P01111); assay: Binding to NRAS by surface plasmon resonance (SPR), KD and KD ratio to KRAS
# GDP-bound NRAS wild-type protein, sequence (P01111 whole entry): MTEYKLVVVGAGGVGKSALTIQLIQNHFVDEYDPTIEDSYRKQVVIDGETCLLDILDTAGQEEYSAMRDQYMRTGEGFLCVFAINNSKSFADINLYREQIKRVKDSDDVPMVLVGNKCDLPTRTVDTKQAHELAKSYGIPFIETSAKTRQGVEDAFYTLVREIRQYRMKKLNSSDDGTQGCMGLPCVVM
# Protocol: (§1) Surface plasmon resonance was used to analyze the binding affinity of compounds for KRAS, NRAS, and HRAS. The apparatus used was Biacore 8K, 8K+, or T200 (GE Healthcare), and the running buffer used was HBS (10 mM HEPES-NaOH, 150 mM NaCl, pH 7.4) containing 1 mM DTT, 10 mM MgCl2, 0.01% Tween 20, 10 µM GDP, and 4% DMSO.
# (§2) Biotinylated Avi-tag fusion KRAS, NRAS, and HRAS proteins were expressed in E. coli BL21 (DE3) strains, and after cells were homogenized, they were purified using Streptavidin Mutein Matrix and Superdex 75. After purification, GDP-loaded KRAS, NRAS, and HRAS proteins were immobilized on the surface of Sensor Chip CAP (Cytiva) coated with Biotin CAPture Reagent in an immobilization amount of about 100 to 300 RU. Binding of each compound was evaluated by the Single Cycle Kinetics method, and a running buffer or a compound solution was added to the RAS protein non-immobilized surface and the immobilized surface to obtain a binding response. The flow rate was set to 100 µL/min, and in the compound-adding cycle, compound solutions having different concentrations were intermittently added for 75 seconds each, starting from a low concentration. […] In the blank cycle, a running buffer was intermittently added and not the compound solution. The Biotin CAPture Reagent and RAS proteins were immobilized for each cycle, and at the end of each cycle, the sensor chip was regenerated by the regeneration solution appended to the Biotin CAPture Kit (Cytiva). Measurement was carried out at 30°C.
# (§3) The resulting sensorgram was subjected to curve fitting based on a 1:1 binding model on Biacore Insight Evaluation Software or T200 Evaluation Software, and thereby the dissociation constant KD of each compound with respect to KRAS, NRAS, and HRAS was determined. […] Blank indicates a compound from which the KD value with respect to NRAS or HRAS was not obtained.
# HRAS wild-type protein = HRAS wild-type protein (Homo sapiens, UniProt P01112); assay: Binding to HRAS by surface plasmon resonance (SPR), KD and KD ratio to KRAS
# HRAS wild-type protein, sequence (P01112 whole entry): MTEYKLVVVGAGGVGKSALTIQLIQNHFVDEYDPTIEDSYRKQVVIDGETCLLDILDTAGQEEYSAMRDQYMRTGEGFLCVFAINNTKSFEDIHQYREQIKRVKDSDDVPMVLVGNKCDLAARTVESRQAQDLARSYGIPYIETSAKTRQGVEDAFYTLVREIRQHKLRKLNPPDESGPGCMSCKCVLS
# Protocol: as §1, §2, §3
# [3] = ratio of KD for GDP-bound NRAS wild-type protein to KD for KRAS
# [4] = ratio of KD for HRAS wild-type protein to KD for KRAS
# [5] = ratio of the KD value with respect to GDP-bound NRAS wild-type protein to the KD value with respect to KRAS
# [6] = ratio of the KD value with respect to HRAS wild-type protein to the KD value with respect to KRAS
Structure (SMILES),IC50 [1],"NRAS /KRAS [2, 3]",HRAS /KRAS (HRAS wild-type protein; [4]),"NRAS /KRAS [2, 5]",HRAS /KRAS (HRAS wild-type protein; [6])
CCO[C@@H]1C[C@H]2C(=O)NC3(CC(C)(C)C3)C(=O)N(C)[C@@H](C3CCCC3)C(=O)N(C)[C@H](C(=O)N3CCCC3)CC(=O)N(C)[C@H]3CCCCCCc4ccc(cc4)C[C@@H](C(=O)N(C)CC(=O)N[C@@H](CCc4ccc(C(F)(F)F)c(OC)c4)C(=O)N2C1)N1CC/C=C\C[C@@H](C1=O)N(C)C(=O)CN(C)C(=O)[C@H]([C@@H](C)CC)NC3=O [PP3034],5.3 nM,A (a compound having 10 or more and less than 20 is denoted as A),B (a compound having 3 or more and less than 10 is denoted as B),,
CCC[C@H]1C(=O)N[C@@H]([C@@H](C)CC)C(=O)N(C)CC(=O)N(C)[C@H]2C/C=C\CCN(C2=O)[C@@H](Cc2ccc(C)cc2)C(=O)N(C)CC(=O)N[C@@H](CCc2cc(F)c(C(F)(F)F)c(F)c2)C(=O)N2C[C@H](OCC)C[C@H]2C(=O)N(C)C2(CCC2)C(=O)N(C)[C@@H](C2CCCC2)C(=O)N(C)[C@H](C(=O)N2CCCCC2)CC(=O)N1C [PP3119],3.5 nM,A (a compound having 10 or more and less than 20 is denoted as A),A (a compound having 10 or more and less than 20 is denoted as A),,
CCO[C@@H]1C[C@H]2C(=O)NC3(CCC3)C(=O)N(C)[C@@H](C3CCCC3)C(=O)N(C)[C@H](C(=O)N(C)CC)CC(=O)N(C)[C@@H](C(C)C)C(=O)N[C@@H]([C@@H](C)CC)C(=O)N(C)CC(=O)N(C)[C@H]3C/C=C\CCN(C3=O)[C@@H](Cc3ccc(C(F)(F)F)cc3)C(=O)N(C)CC(=O)N[C@@H](CCc3cc(F)c(C(F)(F)F)c(F)c3)C(=O)N2C1 [PP1990],6.6 nM,,,A (a compound having 10 or more and less than 20 is denoted as A),A (a compound having 10 or more and less than 20 is denoted as A)
CCCN1C(=O)[C@@H]2CCN2C(=O)[C@H](C)N(C)C(=O)[C@H]([C@@H](C)CC)NC(=O)[C@H](CC(C)C)N(C)C(=O)C[C@@H](C(=O)N2CCOCC2)N(C)C(=O)[C@H](C2CCCC2)N(C)C(=O)C2(CCCC2)NC(=O)[C@@H]2CCCN2C(=O)[C@H](CCc2ccc(C(F)(F)F)c(Cl)c2)NC(=O)CN(C)C(=O)[C@@H]1Cc1ccc(F)cc1 [PP0219] ([NMeL]I[NMeA][Aze][X26][Sar][hPhe(3-Cl-4-CF3)]P[Ac5c][NMeGly(cPent)][NMeD]-Morpholide; lactam N-11),2.2 nM,C (A compound having a KD ratio of 0.1 or more and less than 3 is denoted as C),B (a compound having 3 or more and less than 10 is denoted as B),,
CCCN1C(=O)[C@@H]2CCN2C(=O)[C@H](C)N(C)C(=O)[C@H](C2CCC2)NC(=O)[C@H](CC(C)C)N(C)C(=O)C[C@@H](C(=O)N2CCOCC2)N(C)C(=O)[C@H](C2CCCC2)N(C)C(=O)C2(CCCC2)NC(=O)[C@@H]2CCCN2C(=O)[C@H](CCc2ccc(C(F)(F)F)c(Cl)c2)NC(=O)CN(C)C(=O)[C@@H]1Cc1ccc(C(F)(F)F)cc1 [PP0271] ([NMeL][Gly(cBu)][NMeA][Aze][NPrPhe(4-CF3)][Sar][hPhe(3-Cl-4-CF3)]P[Ac5c][NMeGly(cPent)][NMeD]-Morpholide; lactam N-11),6.5 nM,C (A compound having a KD ratio of 0.1 or more and less than 3 is denoted as C),B (a compound having 3 or more and less than 10 is denoted as B),,
CCO[C@@H]1C[C@H]2C(=O)NC3(CCCC3)C(=O)N(C)[C@@H](C3CCCC3)C(=O)N(C)[C@H](C(=O)N(C)C)CC(=O)N(C)[C@@H](CC(C)C)C(=O)N[C@@H]([C@@H](C)CC)C(=O)N(C)CC(=O)N(C)[C@H]3CCCCCN(C3=O)[C@@H](Cc3ccc(C(F)(F)F)cc3)C(=O)N(C)CC(=O)N[C@@H](CCc3cc(F)c(C(F)(F)F)c(F)c3)C(=O)N2C1 [PP0468],37.2 nM,,,B (a compound having 3 or more and less than 10 is denoted as B),B (a compound having 3 or more and less than 10 is denoted as B)
"CCCN1C(=O)[C@@H]2CCN2C(=O)CN(C)C(=O)[C@H]([C@@H](C)CC)NC(=O)[C@H](CC(C)C)N(C)C(=O)C[C@@H](C(=O)N2CCOCC2)N(C)C(=O)[C@H](C2CCCC2)N(C)C(=O)[C@](C)(COC)NC(=O)[C@@H]2CCCN2C(=O)[C@H](CCc2cc(F)c(C(F)(F)F)c(F)c2)NC(=O)CN(C)C(=O)[C@@H]1Cc1ccc(C(F)(F)F)cc1 [PP0798] ([NMeL]I[Sar][Aze][NPrPhe(4-CF3)][Sar][hPhe(3,5-F2-4-CF3)]P[αMeS](Me)[NMeGly(cPent)][NMeD]-Morpholide; lactam N-11)",61.5 nM,C (A compound having a KD ratio of 0.1 or more and less than 3 is denoted as C),B (a compound having 3 or more and less than 10 is denoted as B),,
